Data taken from publication PMC4954948, “Functional and modular analyses of diverse endoglucanases from Ruminococcus albus 8, a specialist plant cell wall degrading bacterium” (Scientific Reports, 2016).

Columns and labels:
Assay in all cases: isothermal titration calorimetry
Assay type in all cases: binding
Ra2535 TM1 = molecular target: T1, Ra2535 TM1 (Hominimerdicola alba, UniProt E9SAY7); conditions: 25 °C, 50 mM sodium phosphate, 150 mM NaCl, pH 6.5; single site model; read-out: affinity constant (converted)
T1 construct: gene CUS_8100
T1 sequence (E9SAY7 entry or part of it): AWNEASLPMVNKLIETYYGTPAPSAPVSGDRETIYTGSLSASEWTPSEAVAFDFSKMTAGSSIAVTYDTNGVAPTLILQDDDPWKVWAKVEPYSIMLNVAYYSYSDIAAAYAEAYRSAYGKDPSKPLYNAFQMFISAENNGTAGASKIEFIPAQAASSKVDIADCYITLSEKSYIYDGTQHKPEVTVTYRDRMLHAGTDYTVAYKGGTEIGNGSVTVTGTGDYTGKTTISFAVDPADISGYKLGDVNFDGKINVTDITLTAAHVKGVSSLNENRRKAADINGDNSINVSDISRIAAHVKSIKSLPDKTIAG
Text: isothermal titration calorimetry on Ra2535 TM1 | The affinity constants of Ra2535 TM1 and TM2 for cellopentaose were similar

Ra1831 TM1 = molecular target: T2, Ra1831 TM1 (Hominimerdicola alba, UniProt E9SGH0); conditions: 25 °C, 50 mM sodium phosphate, 150 mM NaCl, pH 6.5; weak, parameters not deducible
T2 construct: gene CUS_6389; truncation: C-terminal half of Ra1831 with region of unknown function (CBM65-like) plus CBM37, GH5 domain removed
T2 sequence (E9SGH0 entry or part of it): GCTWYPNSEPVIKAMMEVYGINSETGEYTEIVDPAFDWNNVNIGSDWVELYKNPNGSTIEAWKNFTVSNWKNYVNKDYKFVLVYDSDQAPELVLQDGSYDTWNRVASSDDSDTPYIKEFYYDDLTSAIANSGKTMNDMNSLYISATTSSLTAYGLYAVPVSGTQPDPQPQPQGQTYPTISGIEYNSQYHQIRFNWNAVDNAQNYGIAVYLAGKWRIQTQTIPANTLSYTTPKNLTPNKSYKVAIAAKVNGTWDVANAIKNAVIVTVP

Ra2535 TM2 = molecular target: T3, Ra2535 TM2 (Hominimerdicola alba, UniProt E9SAY7); conditions: 25 °C, 50 mM sodium phosphate, 150 mM NaCl, pH 6.5; single site model; read-out: affinity constant (converted)
T3 construct: gene CUS_8100
T3 sequence (E9SAY7 entry or part of it): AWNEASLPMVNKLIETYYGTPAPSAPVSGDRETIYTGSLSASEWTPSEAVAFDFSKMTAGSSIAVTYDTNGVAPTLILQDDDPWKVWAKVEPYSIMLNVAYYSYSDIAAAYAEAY
Text: isothermal titration calorimetry on Ra2535 TM2 | The affinity constants of Ra2535 TM1 and TM2 for cellopentaose were similar

OC[C@H]1O[C@@H](O[C@H]2[C@H](O)[C@@H](O)[C@H](O[C@H]3[C@H](O)[C@@H](O)[C@H](O[C@H]4[C@H](O)[C@@H](O)[C@H](O[C@H]5[C@H](O)[C@@H](O)C(O)O[C@@H]5CO)O[C@@H]4CO)O[C@@H]3CO)O[C@@H]2CO)[C@H](O)[C@@H](O)[C@@H]1O (stereo partly drawn) [cellopentaose]
Kd (Ra2535 TM1): 5.95 µM | isothermal titration calorimetry (Ra1831 TM1): The representative ITC data for Ra1831 TM1 was not very different from that of TM2 | Kd (Ra2535 TM2): 5.95 µM
